Reference: patent US7867702B2, “Screen for novel protein inhibitors based upon engineered cell line containing an inducible overactivity gene and compensatory gene” (priority 2003, dated 2011)

Experiments:
[1] = system: strain SF58 (dnaA219, rnh::cam/pdnaA[1-86]-biotin); assay: Growth of strain SF58 at 30° C. with IPTG-induced Domain I of DnaA (flask cultures, OD450); type: cell-based, E. coli; details: for difference in OD450, induced vs uninduced culture: 10 parallel cultures
Procedure: The following experiments were performed to provide evidence that strain SF53 will survive when a drug has inactivated the DnaA protein. Such evidence can be obtained without a lead drug, by using production of the N-terminal domain (Domain I amino acids 1 to 86) of wild type DnaA. Domain I of DnaA is important for oligomerization and formation of proper initiation complexes. […] Strain SF53 was transformed with a plasmid carrying an IPTG-inducible gene encoding biotin-tagged Domain I (pBEX5BA-dnaA[1-86]-biotin), transformants checked, and the strain named SF58 (Table 1).
The growth of strain SF58 was tested at three different concentrations of IPTG. An overnight culture of strain SF58 grown at 42° C. was diluted 1:1000 in fresh ABB1 glucose CAA medium and split into five flasks. Culture nos. 1 to 4 were grown at 30° C. and culture no. 5 at 42° C. IPTG was added to culture no. 2, 3 and 4 at a concentration of 0.25, 0.5 and 1 mM, respectively, at the time of dilution. Growth curves were followed by measurement of OD450 for 8 hours. […] The OD450 was less than 0.03 at all time points.
The concentrations of Domain I present after 4 generations growth in the presence of the three different concentrations of IPTG, was assessed by Western blot. A ten-fold difference in OD450 between the culture grown without IPTG (culture no. 1) and the culture grown with 1 mM IPTG (culture no. 4) was obtained after about 10 hours. Thus, when performing a drug screen with the dnaA219rnh strain, a positive hit will be detected by a ten-fold difference in OD450 after about 10 hours in the presence of the drug.
To determine the robustness of the screen and also at which time, in a high throughput assay, it is optimal to measure the difference in OD450 we made the following measurements (FIG. 2). Essentially the same experiment as in FIG. 1 was performed, but OD450 was measured at only three time points, 20 h, 27 h and 48 h, in 10 different parallel cultures. A 20-40 fold difference was obtained after 20 h and after 27 h. After 48 h a background in the uninduced culture started to appear and the difference dropped to about 5 fold. Therefore, measurements of OD450 in high throughput screens should be performed after 10-30 hours of incubation.

SF58 = assay: Microtiter-format growth of SF58 with IPTG (assay validation, positive control); type: cell-based, E. coli; details: 0.31 mM IPTG and above vs 0 to 0.16 mM IPTG, 30° C., after 18 hours
Procedure: The first part of an assay transfer & validation procedure involves the reproduction of the results in microtiter format. […] All 48 replicate cultures of the same microtiter plate of FIG. 3 behaved similarly. […] In addition, after 18 h (6.4×10^4 s) the OD's of the induced cultures are well above controls.
A series of experiments were then performed to assess the signal as a function of the starting inoculum (i.e. the theoretical OD of the culture present in a microtiter well). The data (not shown) indicate that there is no significant difference in the SF58-IPTG growth curve if the inoculum is obtained by dilution of an overnight culture or of an actively growing 42° C.-culture. Consequently, the time for measuring the OD was set at 18 h, and the procedure used was to grow 5 μl of SF53 or SF58 in 30 ml glucose CAA medium (with […]) overnight at 42° C. until the OD600 was 1.2. The stock was diluted 1:100 in glucose CAA (without […]). 90 μl of this was dispensed into each well, with 10 μl of sample. […]
Following the procedure outlined above, a screening of 4240 microbial extracts was performed. Each 96-microtiter plate contained as controls four wells inoculated with SF53, four wells inoculated with SF58 and 8 wells inoculated with SF58 in the presence of 2.5 mM IPTG. […]

Molecule	difference in OD450 between culture grown without IPTG and culture grown with IPTG ([1]; 1 mM IPTG, 30° C., after about 10 hours)	growth rate of SF58 cultures grown at 30° C. with IPTG ([1]; IPTG 0.25, 0.5 and 1 mM, 30° C., OD450 followed for 8 hours)	difference in OD450, induced vs uninduced culture ([1]; after 20 h, 30° C.)	difference in OD450, induced vs uninduced culture ([1]; after 27 h, 30° C.)	difference in OD450, induced vs uninduced culture ([1]; after 48 h, 30° C.)	OD405 of induced SF58 cultures compared with controls (SF58)	growth of the strain at 30° C. ([1]; induction of Domain I by IPTG in SF58, 30° C.)
CC(C)S[C@@H]1O[C@H](CO)[C@H](O)[C@H](O)[C@H]1O [IPTG]	ten-fold	increasing growth rates with increasing concentration of IPTG	20-40 fold	20-40 fold	about 5 fold	significantly higher than controls	–
Domain I: N-terminal domain (amino acids 1 to 86) of wild type DnaA, biotin-tagged, expressed in SF58; poisons initiation complexes (protein, UniProt P03004 1-86, looked up, fragment, biotin tag, N-terminal domain (amino acids 1 to 86) of wild type DnaA, biotin-tagged, expressed in SF58; poisons initiation complexes) MSLSLWQQCLARLQDELPATEFSMWIRPLQAELSDNTLALYAPNRFVLDWVRDKYLNNINGLLTSFCGADAPQLRFEVGTKPVTQT	–	–	–	–	–	–	restored
